Reference: patent publication US4918079A, “Imidazole derivatives as 5-HT3 receptor antagonists” (Beecham Group p.l.c., priority 1987, dated 1990)
Counter-ions that a name gives are not always drawn.

System: von Bezold-Jarisch reflex evoked by 5-HT
Experiment: Antagonism of the von Bezold-Jarisch reflex evoked by 5-HT in the anaesthetised rat
Type: in vivo
Details: iv, male rats, urethane anaesthesia, 5-HT usually 6 μg/kg i.v., heart rate, read-out: ED50 (concentration required to reduce the 5-HT-evoked response to 50% of the control response)
Protocol: Antagonism of the von Bezold-Jarisch reflex
The compounds were evaluated for antagonism of the von Bezold-Jarisch reflex evoked by 5-HT in the anaesthetised rat according to the following method:
Male rats 250≥350 g, were anaesthetised with urethane (1.25 g/kg intraperitoneally) and blood pressure and heart rate recorded as described by Fozard J. R. et al., J. Cardiovasc. Pharmacol. 2, 229-245 (1980). A submaximal dose of 5-HT (usually 6 μg/kg) was given repeatedly by the intravenous route and changes in heart rate quantified. Compounds were given intravenously and the concentration required to reduce the 5-HT-evoked response to 50% of the control response (ED50) was then determined.

CC1(C)CN(C(=O)CCc2c[nH]cn2)c2ccccc21 [Example E1, monohydrochloride]
ED50: 4.2 µg/kg
